Reference: article PMC12298237 (Marine Drugs, 2025)
Where a SMILES comes first, the peptide text is derived from it. [ ]: non-standard residue; d: D form. The star is where a group is joined. Leu(ol) = CC(C)C[C@H](N)CO; dIva = CC[C@@](C)(N)C(=O)O; Octanoyl = CCCCCCCC(=O)*

Experiments:
Format in all cases: cell-based, human
DLD-1 cells [1] = test: Colony formation assay; settings: DLD-1, 9 or 18 μM, two weeks, crystal violet, vs untreated control, n = 3
Description: (§1) For colony formation assays, DLD-1 and HT-29 cells were seeded into 6-well plates at a density of 800 cells per well. […] The culture medium was refreshed every four days. After two weeks of continuous culture, colonies were fixed with 4% paraformaldehyde for 15 min and subsequently stained with crystal violet solution (Yuanye, Shanghai, China) for 20 min. Colony formation was quantified using ImageJ 1.54g software.

HT-29 cells [2] = test: Colony formation assay; settings: HT-29, 9 or 18 μM, two weeks, crystal violet, vs untreated control, n = 3
Description: as §1

DLD-1 cells [3] = test: Cell cycle analysis by flow cytometry (PI); settings: DLD-1, 24 h of exposure, in words
Description: (§2) Following treatment, cells were collected, washed, and fixed in 75% pre-chilled ethanol at −20 °C for 24 h. After fixation, cells were centrifuged, washed twice with cold PBS, and stained with propidium iodide (PI, 0.1 mg/mL) in the presence of RNase A (0.1 mg/mL) at 37 °C for 30 min. Cell cycle distribution was analyzed by flow cytometry (LSRFortessa, BD, Canton, MA, USA). To enhance the clarity of the results, cell populations were selectively gated using the ModFit LT 5.0 software.

HT-29 cells [4] = test: Cell cycle analysis by flow cytometry (PI); settings: HT-29, 24 h of exposure, in words
Description: as §2

DLD-1 cells [5] = test: Calcein-AM/PI staining assay; settings: DLD-1, 18 μM, 0, 6, 12 and 18 h, fluorescence microscopy
Description: (§3) For the Calcein-AM/PI staining assay, DLD-1 and HT-29 cells were seeded in 24-well plates at 5 × 10^4 cells per well. […] After incubation for 0, 6, 12, and 18 h, cells were stained by using the calcein AM (MedChem Express (Monmouth Junction, NJ, USA), 5 μM) and propidium iodide (MedChem Express, 50 μg/mL). The cells were incubated in the dark at 37 °C for 30 min, followed by imaging with an inverted fluorescence microscope.

HT-29 cells [6] = test: Calcein-AM/PI staining assay; settings: HT-29, 18 μM, 0, 6, 12 and 18 h, fluorescence microscopy
Description: as §3

[7] = tested on: phosphorylated ERK1/2 (p-ERK) in DLD-1 cells; test: Western blot of phosphorylated ERK1/2; settings: DLD-1, 9 and 18 μM, 24 h
Description: (§4) Western blotting was performed as previously described. […] Cells were washed twice with PBS and lysed in RIPA buffer (Beyotime Biotechnology, Jiangsu, China) on ice for 30 min. Lysates were centrifuged at 12,000 rpm for 20 min at 4 °C, and the supernatant containing total protein was collected. Equal amounts of protein were separated by SDS-PAGE and transferred onto polyvinylidene fluoride (PVDF) membranes. Membranes were blocked with 5% non-fat milk at room temperature for 1 h, followed by incubation with the appropriate primary and secondary antibodies. Protein bands were visualized using the Omni-ECL Femto Light Chemiluminescence Kit (Epizyme, Shanghai, China) and imaged with the Amersham Imager 680 (Cytiva, Marlborough, MA, USA).

[8] = tested on: phosphorylated ERK1/2 (p-ERK) in HT-29 cells; test: Western blot of phosphorylated ERK1/2; settings: HT-29, 9 and 18 μM, 24 h
Description: as §4

Q: `CCCCCCCC(=O)NCC(=O)N[C@@H](Cc1ccccc1)C(=O)N[C@@H](CC(C)C)C(=O)N[C@](C)(CC)C(=O)N[C@@H](C)C(=O)N[C@@H](CC(C)C)C(=O)N[C@H](CO)CC(C)C` [Compound 1, lipotrichaibol A] (Octanoyl-GFL[dIva]AL[Leu(ol)]) was tested. Which “number of colony-forming cells” value (DLD-1 cells [1]) did it give?
A: markedly reduced

Q: What about the “number of colony-forming cells” value (HT-29 cells [2]) of the same compound?
A: markedly reduced

Q: And the “proportion of cells in the G0/G1 phase” value (DLD-1 cells [3])?
A: significant increase

Q: And the “proportion of cells in the G0/G1 phase” value (HT-29 cells [4])?
A: significant increase

Q: What about the “cell proliferation and dead cells (Calcein-AM/PI staining)” value (DLD-1 cells [5]) of the same compound?
A: pronounced reduction in cell proliferation

Q: What about the “cell proliferation and dead cells (Calcein-AM/PI staining)” value (HT-29 cells [6]) of the same compound?
A: pronounced reduction in cell proliferation

Q: What about the “levels of phosphorylated ERK1/2 (p-ERK)” value [7] of the same compound?
A: significantly reduced

Q: And the “levels of phosphorylated ERK1/2 (p-ERK)” value [8]?
A: significantly reduced
